Assay results taken from article PMC6753678, “Fueling Open Innovation for Malaria Transmission-Blocking Drugs: Hundreds of Molecules Targeting Early Parasite Mosquito Stages” (Frontiers in Microbiology, 2019).

How the values were obtained:
[1] = tested on: P. falciparum late stage (stages IV-V) gametocytes; experiment: P. falciparum late stage gametocyte ATP depletion assay (Pf GC-ATP); conditions: 1: YES; 0: NO; >10-fold selectivity over cytotoxicity
[2] = tested on: P. falciparum late stage (stages IV-V) gametocytes; design: method as in Almela et al 2016; conditions: P. falciparum late stage gametocyte ATP assay, TCAMS screen; ref Almela et al 2016; read-out: Pf GCT ATP IC50; cited from earlier work
HepG2 cells = experiment: HepG2 cytotoxicity assay; conditions: HepG2 cytotoxicity unified across screens; >25 set to 25.00
In short: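 HepG2 cells, 2,500 per well in MEM with 10% FBS and 1% NEAA, exposed to compounds for 48 h at 37°C, 5% CO2. Viability read by fluorescence; percent inhibition relative to 50 μM doxorubicin and DMSO controls.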

| SMILES | Is compound selective in assay? Pf GC-ATP active? [1] | IC50 [2] [nM] | Unified cytotox (HepG2 cells) [µM] |
| --- | --- | --- | --- |
| Br.c1cc(C2=NC3CCCCC3N2)ccc1OCCCCCOc1ccc(C2=NC3CCCCC3N2)cc1 (stereo not drawn) [TCMDC-137802] | 1 (1: YES) | 280 | 3.74 |
| CCCCCCCN1CC[C@@H](CCCc2ccnc3ccc(OCCC4CCNCC4)cc23)[C@@H](CC)C1.Cl [TCMDC-139819] | 1 (1: YES) | 420 | 4.50 |
| O=C(O)C(F)(F)F.c1cc(CN2CCC(CCN3CCCCC3)CC2)cc(-c2cccc(-c3nc4ccccc4[nH]3)c2)c1 [TCMDC-133920] | 1 (1: YES) | 290 | 13.10 |
| Cl.N=C(NCCCc1ccccc1)c1cccc(C(=N)NCCCc2ccccc2)n1 [TCMDC-137453] | 1 (1: YES) | 310 | 12.80 |
| Cc1ccc2nc(C)cc(N/N=C/c3ccc([N+](=O)[O-])cc3)c2c1 [TCMDC-142070] | 0 (0: NO) | 9410 | 0.19 |
| CN(C)CCN(Cc1ccccc1-c1ccc(CNCCc2ccccc2)cc1)C(=O)c1ccccc1.O=C(O)C(F)(F)F [TCMDC-140532] | 0 (0: NO) | 780 | 7.54 |
| CCCCCCCN1CC[C@@H](CCCc2ccnc3ccc(OCCCCN/C(N)=N/O)cc23)[C@@H](CC)C1.O=C(O)C(=O)O [TCMDC-139839] | 1 (1: YES) | 470 | 17.20 |
| Cl.c1ccc(CN2CCN(CCCCNc3c4ccccc4nc4ccccc34)CC2)cc1 [TCMDC-138009] | 1 (1: YES) | 790 | 9.92 |
| CC(C)(C)N1CCC(N(Cc2ccc(-c3ccc(C(F)(F)F)cc3)cc2)C(=O)Cn2c(CCc3cccc(F)c3F)cc(=O)c3cccnc32)CC1.O=C(O)C(O)C(O)C(=O)O [TCMDC-136011] | 0 (0: NO) | 2390 | 3.10 |
| Cc1cccc2nc(-c3ccc(-c4cccc(CN5CCC(CCN6CCCCC6)CC5)c4)s3)[nH]c12.O=C(O)C(F)(F)F [TCMDC-133923] | 0 (0: NO) | 460 | 3.87 |
| CC(C)CC(=O)N(Cc1ccc(-c2ccc(CNC3Cc4ccccc4C3)cc2)cc1)C1CCNCC1.O=C(O)C(F)(F)F [TCMDC-141449] | 0 (0: NO) | 630 | 6.20 |
| O=C(CC1CCCC1)N(Cc1ccc(-c2ccc(CNC3Cc4ccccc4C3)cc2)cc1)CC1CCCCN1.O=C(O)C(F)(F)F (stereo not drawn) [TCMDC-141446] | 0 (0: NO) | 1000 | 6.47 |
| O=C(C1CC1c1ccccc1)N(Cc1ccc(-c2ccc(CNCCc3ccccc3)cc2)cc1)C1CCNCC1.O=C(O)C(F)(F)F (stereo not drawn) [TCMDC-141443] | 1 (1: YES) | 390 | 6.70 |
| CN1CCN(CC2(Nc3nccc(NCCc4cn(C)c5ccccc45)n3)CCCCC2)CC1 [TCMDC-135122] | 0 (0: NO) | 700 | 6.94 |
| CCc1c(CCNCCCCCCNCCc2ccc(Br)cc2)ccc(OC)c1OC.Cl [TCMDC-132045] | 1 (1: YES) | 220 | 3.20 |
| Nc1c2ccccc2nc2ccc(-c3ccccc3)cc12 [TCMDC-132030] | 0 (0: NO) | 490 | 3.30 |
| CCN(CC)CCN(Cc1ccc(-c2ccc(C(F)(F)F)cc2)cc1)C(=O)c1ccc(-c2ccc(NC(=O)OC)cc2C)cc1 [TCMDC-141558] | 0 (0: NO) | 3710 | 5.40 |
| NC1CCN(Cc2ccc(-c3ccc(-c4nc5cc(F)ccc5[nH]4)cc3)cc2)C1.O=C(O)C(F)(F)F (stereo not drawn) [TCMDC-133872] | 0 (0: NO) | 830 | 7.25 |
| Nc1cc(/C=C/c2ccc([N+](=O)[O-])s2)nc2ccccc12 [TCMDC-142296] | 1 (1: YES) | 600 | 7.60 |
| CN1CCN(c2nsc3ccc(-c4ccc(NC(=O)Nc5cc(C(F)(F)F)ccc5F)cc4)cc23)CC1.O=C(O)C(F)(F)F [TCMDC-133435] | 0 (0: NO) | 7520 | 6.40 |
| O=C(Nc1ccc(N2CCNCC2)cc1)c1ccn2ncc(-c3cccc(Cl)c3)c2n1 [TCMDC-132663] | 0 (0: NO) | 3500 | 22.22 |

| SMILES | Is compound selective in assay? Pf GC-ATP active? [1] | IC50 [2] [nM] | Unified cytotox (HepG2 cells) [µM] |
| --- | --- | --- | --- |
| C[C@H]1CN(Cc2cccc(-c3cc(CNC(=O)c4cccc(CC5CCN(C)CC5)c4)ccc3F)c2)CCN1C [TCMDC-136349] | 0 (0: NO) | 850 | 6.97 |
| Cc1cc(NCCc2ccccc2)nc(NC(=N)Nc2ccccc2Cl)n1 [TCMDC-138370] | 0 (0: NO) | 4870 | 13.60 |
| CN1CCN(CCCN(Cc2cccc(-c3cccc(CNC4CCCC4)c3)c2)C(=O)CCC2CCCC2)CC1.O=C(O)C(F)(F)F [TCMDC-140555] | 0 (0: NO) | 810 | 7.50 |
| CN(C)CCNC(=O)c1ccc(-c2cnc3ccc(NCc4ccc(Cl)c(Cl)c4)nn23)cc1 [TCMDC-136678] | 1 (1: YES) | 330 | 16.66 |
| CCc1cc(COc2ccc(CNCCC(C)C)cc2I)c(OCc2ccccc2)c(COc2ccc(CNCCC(C)C)cc2I)c1.Cl [TCMDC-137255] | 0 (0: NO) | 1020 | 5.80 |
| CC(C)CNCc1ccc(-c2ccc(CN(CCCN3CCN(C)CC3)C(=O)/C=C/c3ccccc3)cc2)cc1.O=C(O)C(F)(F)F [TCMDC-140546] | 0 (0: NO) | 1000 | 6.99 |
| CCCCN1CCN(CCCCNc2c3ccccc3nc3ccccc23)CC1.Cl [TCMDC-137569] | 1 (1: YES) | 1190 | 12.68 |
| CC(C)CNCc1ccc(-c2cccc(CN(C(=O)NC3CCCCC3)C3CCN(Cc4ccccc4)CC3)c2)cc1.O=C(O)C(F)(F)F [TCMDC-140628] | 0 (0: NO) | 1660 | 1.81 |
| CCCCCCCN1CC[C@@H](CCCc2ccnc3ccc(OCC4CCCNC4)cc23)[C@@H](CC)C1.Cl (stereo partly drawn) [TCMDC-139816] | 1 (1: YES) | 300 | 4.18 |
| CCN(CC)CCOc1ccc(C(O)(C#CC(O)(c2ccccc2)c2ccc(OCCN(CC)CC)cc2)c2ccccc2)cc1 (stereo not drawn) [TCMDC-137197] | 0 (0: NO) | 690 | 3.67 |
| CN1CCN(CCCN(Cc2ccc(-c3cccc(CNC4CCCC4)c3)cc2)C(=O)Nc2ccccc2)CC1.O=C(O)C(F)(F)F [TCMDC-140605] | 1 (1: YES) | 180 | 14.26 |
| CCc1c(CCNCCc2cccc(CCNCCc3ccc(OC)c(OC)c3CC)c2)ccc(OC)c1OC.Cl [TCMDC-132056] | 0 (0: NO) | 550 | 4.11 |
| Cl.O=C(NCCCCN1CCC(c2ccc3c(c2OCCO)CCCC3)CC1)c1ccc2oc(-c3ccc(C(F)(F)F)cc3)cc2c1 [TCMDC-138771] | 1 (1: YES) | 630 | 6.59 |
| O=C(O)C(F)(F)F.c1cc(CNCCN2CCNCC2)cc(-c2cccc(-c3nc4ccccc4[nH]3)c2)c1 [TCMDC-132859] | 1 (1: YES) | 710 | 19.30 |
| COc1cc2ccccc2c(OC)c1CNCCCCCCNCc1c(OC)cc2ccccc2c1OC.CS(=O)(=O)O [TCMDC-137843] | 1 (1: YES) | 320 | 4.25 |
| CS(=O)(=O)CCNCc1nc(-c2ccc3c(=O)[nH]cnc3c2)cs1 [TCMDC-138539] | 0 (0: NO) | 2680 | 4.20 |
| CCN(Cc1ccc(-c2ccc(C(F)(F)F)cc2)cc1)C(=O)Cn1c(SCc2cccc(F)c2F)cc(=O)c2cc(CN3CCCCC3)ccc21.Cl [TCMDC-141592] | 0 (0: NO) | 2340 | 4.20 |
| Cl.c1ccc2c(NCCCCCCNc3ccnc4ccccc34)ccnc2c1 [TCMDC-137913] | 1 (1: YES) | 960 | 16.40 |
| Cc1nc(-c2cccc(Nc3ccnc4cc(-c5nccs5)ccc34)c2)no1.Cl [TCMDC-138334] | 1 (1: YES) | 300 | 7.62 |
| CC(Cc1ccc(COc2ccc(CC(CO)NCCc3cccc(Cl)c3)cc2)cc1)NCCc1cccc(Cl)c1.Cl (stereo not drawn) [TCMDC-139844] | 0 (0: NO) | 1390 | 3.50 |
| COc1ccccc1CCNc1nc(C)cc(N[C@@H](Cc2ccccc2)C(=O)NCc2cccc(F)c2)n1.O=C(O)C(F)(F)F [TCMDC-134893] | 0 (0: NO) | 5300 | 6.30 |
